Values quoted from earlier work, collected in patent US10639343B2, “Preparation method of Gynostemma pentaphyllum leaves extract and Gynostemma pentaphyllum extract prepared by the method thereof” (BTC CORPORATION, priority 2018, dated 2020).

Conditions: intraperitoneal injection, without training

NC(=O)c1ncn([C@@H]2O[C@H](COP(=O)(O)O)[C@@H](O)[C@H]2O)c1N [AICAR, 5-aminoimidazole-4-carboxamide ribonucleotide]
increase of the distance of exercise performance: 44%
